Measurements: publication PMC6151740, “Pharmacokinetics, Tissue Distribution, and Elimination of Three Active Alkaloids in Rats after Oral Administration of the Effective Fraction of Alkaloids from Ramulus Mori, an Innovative Hypoglycemic Agent” (Molecules : A Journal of Synthetic Chemistry and Natural …, 2017)
Read-outs that look alike come from different tables or passages of the source.

Columns and labels:
[1] = Plasma pharmacokinetic study in rats after oral and intravenous administration of SZ–A or purified DNJ; type: in vivo, rat; conditions: for AUC(0-inf) / AUC(0-t) / Cmax / Tmax / half-life / clearance / MRT last / MRT inf / Vd / CLz: rat plasma, n = 5; for clearance: read-out: CLz (converted); for MRT last: read-out: MRT0–t; for MRT inf: read-out: MRT0–∞; for bioavailability: plasma, read-out: F (oral absolute bioavailability); for bioavailability / time to reach maximum plasma concentration (Cmax): rat; for time to reach maximum plasma concentration (Cmax): after oral administration of SZ–A (40, 200, 1000 mg/kg), upper bound over doses
Description: The oral dosing solutions used for all animal studies were prepared by dissolving in water. Thirty rats weighed 250–270 g after acclimation were randomly divided into six groups of five animals each. For oral administration, rats were treated with SZ–A (40, 200, 1000 mg/kg) or purified DNJ (15 mg/kg) dissolve in water. Blood samples (about 0.25 mL) were collected via the postorbital venous plexus veins under ether anesthesia into heparinized polythene tubes before dosing and at 0.08, 0.17, 0.33, 0.50, 1, 2, 3, 4, 6, 8, 12, 24 and 36 h after drug administration. For intravenous dosing, rats were given SZ–A (4 mg/kg) or DNJ (1.5 mg/kg) dissolved in normal saline solution through the tail vein. Then blood samples were collected at 0.03, 0.08, 0.17, 0.33, 0.67, 1, 2, 4, 6, 8, 12, 24, and 36 h under similar conditions. Considering the physical limit of blood in rats, during the process of the pharmacokinetic experiment, each rat was received 0.25 mL of sterile isotonic saline at each time point after blood sampling for compensation of body fluid loss, and the blood loss was also corrected at a definite degree. Plasma was separated by centrifuging the blood samples at 1660× g for 5 min and stored at −20 °C until LC-MS/MS analysis. Data fitting and pharmacokinetic parameter estimates were carried out using non–compartmental analysis via WinNonlin Software (version 6.1, Pharsight Corporation, Mountain View, CA, USA). F was calculated according to the formula: F (%) = (AUC oral/AUC i.v.) × (dose i.v./dose oral) × 100.
The plasma, feces, urine, and bile samples (100 μL) were added to 1 μL of Tris aqueous solution (2 M), 10 μL of IS working solution (2 μg/mL), and 190 μL methanol–acetonitrile (25:75, v/v). The incubation supernatant samples (300 μL) were mixed with 1 μL Tris aqueous solution (2 M) and 10 μL of IS working solution (2 μg/mL). All mixtures were vortexed for 30 s followed by centrifugation at 18,880× g for 5 min, twice.
Briefly, the LC-MS/MS instrument consisted of a 1260 HPLC system (Agilent, Santa Clara, CA, USA) and API4000 triple quadrupole mass spectrometer (Applied Biosystems Sciex, Toronto, ON, Canada) with an electrospray ionization (ESI) source and Analyst software (version 1.5.2, Applied Biosystems Sciex, Toronto, ON, Canada) for data acquisition and processing. DNJ, FGM, DAB, and IS were separated in a Xbridge amide™ column (3.5 μm, 4.6 mm × 150 mm; Waters, Milford, MA, USA) with a gradient mobile phase of acetonitrile-water (0.1% ammonium hydroxide) at a flow rate of 0.7 mL/min. An ESI source was used in the positive ion mode. The optimized mass spectrometric condition was as follows: ion spray voltage, 5500 V; collision gas, 6 psi; curtain gas, 20 psi; ion source gas 1 (GS1), 45 psi; ion source gas 2 (GS2), 45 psi; temperature, 450 °C. The multiple reaction monitoring (MRM) transitions of DNJ, FGM, DAB, and IS were m/z 164.0→110.1 (declustering potential (DP) 50 V, collision energy (CE) 22 V, collision cell exit potential (CXP) 10 V), 148.0→112.1 (DP 66 V, CE 21 V, CXP 10 V), 134.0→98.0 (DP 60 V, CE 20 V, CXP 10 V) and 208.0→146.1 (DP 50 V, CE 27 V, CXP 10 V), respectively.

[2] = In vitro incubation of SZ–A with rat intestinal homogenate; type: in vitro ADME; conditions: SZ–A 10.87 μg/mL, with/without NADPH generation, 37 °C, 120 min
Description: Pooled rat intestinal homogenate from six males was prepared using a tissue homogenizer with ice cold normal saline solution at a proportion of 1:3 (w/v). SZ–A was incubated with rat intestinal homogenate (5 mg protein/mL) with/without a NADPH-generating system (0.011 M β-NADP, 0.1 M glucose 6-phosphate, 10 U/mL glucose-6-phosphate dehydrogenase) in a 37 °C water bath for 120 min. Meanwhile, caecal content was collected and mixed with anaerobic medium (1:30, w/v) to prepare the cultures under nitrogen atmosphere at 37 °C for 120 min. SZ–A and rat caecal microbiota cultures were incubated at a total volume of 200 μL with the boiled samples as the negative control, concomitantly. The incubation was stopped at 2 h by adding two volumes of methanol–acetonitrile (1:3, v/v). Triplicate supernatants were taken by centrifugation at 18,880× g for 5 min and stored at −20 °C until LC-MS/MS analysis. The results were expressed as the percentage of the concentration at 0 min.

[3] = Sprague-Dawley, iv, SZ–A 4 mg/kg i.v.
[4] = Sprague-Dawley, iv, SZ–A 4 mg/kg i.v., read-out: Vd
[5] = Sprague-Dawley, po, SZ–A 40 mg/kg p.o. vs SZ–A 4 mg/kg i.v.
[6] = Sprague-Dawley, po, SZ–A 200 mg/kg p.o. vs SZ–A 4 mg/kg i.v.
[7] = Sprague-Dawley, po, SZ–A 1000 mg/kg p.o. vs SZ–A 4 mg/kg i.v.
[8] = Sprague-Dawley, po, SZ–A 40 mg/kg p.o.
[9] = Sprague-Dawley, po, SZ–A 200 mg/kg p.o.
[10] = Sprague-Dawley, po, SZ–A 1000 mg/kg p.o.

## OC[C@H]1NCC[C@@H](O)[C@@H]1O [FGM, fagomine]
[1]; [3]
  AUC(0-inf): 284 ± 36.7 ng·h/mL
  AUC(0-t): 278 ± 36.8 ng·h/mL
  Cmax: 1240 ± 304 ng/mL
  Tmax: 0.033 h
  half-life: 0.23 ± 0.03 h
  clearance: 15.4 mL/min/kg
  MRT last: 0.26 ± 0.06 h
  MRT inf: 0.3 ± 0.06 h
[1]; [4]
  Vd: 0.308 ± 0.061 L/kg
[1]; [5]
  bioavailability: 77.5%
[1]; [6]
  bioavailability: 38.5%
[1]; [7]
  bioavailability: 29.9%
[1]; [8]
  AUC(0-inf): 2170 ± 770 ng·h/mL
  AUC(0-t): 2160 ± 778 ng·h/mL
  Cmax: 1490 ± 756 ng/mL
  Tmax: 0.67 ± 0.29 h
  half-life: 0.93 ± 0.29 h
  MRT last: 1.41 ± 0.27 h
  MRT inf: 1.48 ± 0.34 h
[1]; [9]
  AUC(0-inf): 5400 ± 1470 ng·h/mL
  AUC(0-t): 5360 ± 1490 ng·h/mL
  Cmax: 2250 ± 1060 ng/mL
  Tmax: 0.57 ± 0.09 h
  half-life: 1.44 ± 0.16 h
  MRT last: 2.66 ± 0.52 h
  MRT inf: 2.78 ± 0.54 h
[1]; [10]
  AUC(0-inf): 21800 ng·h/mL
  AUC(0-t): 20800 ng·h/mL
  Cmax: 4390 ± 2360 ng/mL
  Tmax: 1.3 ± 0.67 h
  half-life: 2.73 ± 1.16 h
  MRT last: 5.44 ± 1.77 h
  MRT inf: 6.15 ± 2.11 h
[1]; SZ–A 40 mg/kg p.o.
  CLz: 21.965 ± 9.748 mL/min/kg
  Vd: 1.894 ± 1.3578 L/kg
[1]; SZ–A 200 mg/kg p.o.
  CLz: 42.625 ± 13.11 mL/min/kg
  Vd: 5.332 ± 1.8559 L/kg
[1]; SZ–A 1000 mg/kg p.o.
  CLz: 56.43 ± 21.033 mL/min/kg
  Vd: 14,243.4 ± 9987.6 mL/kg
[1]
  time to reach maximum plasma concentration (Cmax): ≤ 1.30 h
[2]
  amount of alkaloid after incubation in rat intestinal homogenate: not changed significantly

## OC[C@H]1NC[C@@H](O)[C@@H]1O [DAB, 1,4-dideoxy-1,4-imino-D-arabinitol]
[1]; [3]
  AUC(0-inf): 129 ± 20.1 ng·h/mL
  AUC(0-t): 124 ± 20.8 ng·h/mL
  Cmax: 625 ± 183 ng/mL
  Tmax: 0.033 h
  half-life: 0.18 ± 0.03 h
  clearance: 25.6 mL/min/kg
  MRT last: 0.18 ± 0.04 h
  MRT inf: 0.21 ± 0.05 h
[1]; [4]
  Vd: 0.401 ± 0.0408 L/kg
[1]; [5]
  bioavailability: 78.2%
[1]; [6]
  bioavailability: 56.6%
[1]; [7]
  bioavailability: 40.1%
[1]; [8]
  AUC(0-inf): 978 ± 140 ng·h/mL
  AUC(0-t): 969 ± 147 ng·h/mL
  Cmax: 708 ± 171 ng/mL
  Tmax: 0.67 ± 0.29 h
  half-life: 1.22 ± 0.16 h
  MRT last: 1.32 ± 0.18 h
  MRT inf: 1.42 ± 0.25 h
[1]; [9]
  AUC(0-inf): 3560 ± 729 ng·h/mL
  AUC(0-t): 3510 ± 716 ng·h/mL
  Cmax: 2000 ± 656 ng/mL
  Tmax: 0.57 ± 0.09 h
  half-life: 1.38 ± 0.23 h
  MRT last: 1.95 ± 0.35 h
  MRT inf: 2.09 ± 0.29 h
[1]; [10]
  AUC(0-inf): 12900 ng·h/mL
  AUC(0-t): 12400 ng·h/mL
  Tmax: 0.47 ± 0.14 h
  half-life: 2.38 ± 0.97 h
  MRT last: 4.09 ± 1.19 h
  MRT inf: 4.66 ± 1.52 h
[1]; SZ–A 40 mg/kg p.o.
  CLz: 33.188 ± 4.977 mL/min/kg
  Vd: 3.5486 ± 0.9901 L/kg
[1]; SZ–A 200 mg/kg p.o.
  CLz: 46.928 ± 9.39 mL/min/kg
  Vd: 5.4724 ± 0.5717 L/kg
[1]; SZ–A 1000 mg/kg p.o.
  CLz: 65.433 ± 14.71 mL/min/kg
  Vd: 13,892.2 ± 7160.0 mL/kg
[1]
  time to reach maximum plasma concentration (Cmax): ≤ 0.67 h
[2]
  amount of alkaloid after incubation in rat intestinal homogenate: not changed significantly
